The results in this text go back to publication PMC9104356, “Characterisation of a Novel Acetyl Xylan Esterase (BaAXE) Screened from the Gut Microbiota of the Common Black Slug (Arion ater)” (Molecules, 2022).

The experiment deals with T1, BaAXE (Gene_id_40363).
T1 construct: full-length 654 bp PCR product (about 218 residues), pDEST42, C-terminal 6xHis, E. coli BL21(DE3), 27 kDa by SDS-PAGE; forward primer CACCATGAAACATGACCAC encodes N-terminus MKHDH
Kind of experiment: spectrophotometric 4-nitrophenol release at […] nm, nonlinear Michaelis-Menten fit. The format is biochemical. To be noted: pH 8, 0.1-2 mM substrate; temperature not told for kinetics (standard assay 40 °C, 50 mM sodium phosphate, 150 mM NaCl, 0.01% Triton X-100).

Take `CC(=O)Oc1ccc([N+](=O)[O-])cc1` [4-NPA, 4-nitrophenyl acetate]: the Michaelis constant (Km) came to 430 µM.
